pEC50, pKd: −log10 of the molar value. Like-named read-outs stand apart in the source and are kept apart here.
Legend:
AHR [1] = target: T1, AHR (Homo sapiens, UniProt P35869); test: Inhibition of ligand-induced AHR activation and AHR-regulated gene expression by an AHR antagonist; format: cell-based; set-up: Malignant glioma cell lines as well as GIC express the AHR constitutively; endogenous in cells
T1 sequence (P35869 11-848): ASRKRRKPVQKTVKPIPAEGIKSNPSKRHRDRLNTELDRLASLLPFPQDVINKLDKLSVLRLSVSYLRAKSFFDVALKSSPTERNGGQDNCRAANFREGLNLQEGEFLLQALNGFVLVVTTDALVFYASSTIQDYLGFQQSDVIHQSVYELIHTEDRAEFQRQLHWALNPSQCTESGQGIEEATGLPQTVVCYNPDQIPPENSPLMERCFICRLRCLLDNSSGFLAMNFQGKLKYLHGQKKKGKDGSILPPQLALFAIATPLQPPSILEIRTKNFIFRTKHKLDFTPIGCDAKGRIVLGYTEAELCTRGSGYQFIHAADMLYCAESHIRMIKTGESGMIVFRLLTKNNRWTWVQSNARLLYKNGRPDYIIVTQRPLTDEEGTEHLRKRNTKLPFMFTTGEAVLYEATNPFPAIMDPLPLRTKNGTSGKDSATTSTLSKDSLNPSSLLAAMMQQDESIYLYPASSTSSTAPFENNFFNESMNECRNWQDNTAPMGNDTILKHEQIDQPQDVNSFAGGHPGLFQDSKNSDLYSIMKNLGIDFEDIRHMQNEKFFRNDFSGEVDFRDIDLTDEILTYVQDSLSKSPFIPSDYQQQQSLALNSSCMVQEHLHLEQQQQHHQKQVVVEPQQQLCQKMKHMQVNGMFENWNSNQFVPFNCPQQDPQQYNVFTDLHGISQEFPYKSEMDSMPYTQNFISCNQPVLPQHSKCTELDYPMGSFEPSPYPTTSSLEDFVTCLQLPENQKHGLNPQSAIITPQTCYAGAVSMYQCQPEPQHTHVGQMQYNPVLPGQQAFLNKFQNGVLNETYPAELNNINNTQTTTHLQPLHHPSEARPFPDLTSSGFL
Description: TDO expression was analysed by immunohistochemistry in human tumors. Its relevance for Trp degradation was determined using genetic knockdown or overexpression of TDO. Trp and Kyn were measured in cell culture supernatants, human sera and xenograft tissue by HPLC. Mixed leukocyte reactions, chromium release, ELISpot and staining of immune cells in tumor tissues were used to assess the immune effects of TDO activity. Cell cycle analysis, matrigel and spheroid invasion assays, scratch assays, sphere formation assays and clonogenicity assays were employed to analyse the autocrine effects of TDO activity. All animal procedures followed the institutional laboratory animal research guidelines and were approved by the governmental authorities. Orthotopic implantation of human glioma cells with and without stable knockdown of TDO into CD1nu/nu mice, s.c. injection of these cells into NK-depleted or wildtype CD1nu/nu mice and s.c. injection of murine Tdo-proficient and Tdo-deficient GL261 cells into syngeneic C57BL/6N mice were performed to analyse the autocrine and paracrine effects of TDO activity in vivo. Microarray analysis of Kyn-treated human glioma cells was performed to identify signalling pathways activated by Kyn. Analysis of AHR translocation, DRE-luciferase assays and radioligand binding assays confirmed activation of the AHR by Kyn. […]

AHR [2] = target: T1, AHR; test: ethoxyresorufin-O-deethylase (EROD) assay, induction of AHR target gene CYP1A1; format: cell-based
Description: Such an inhibition may occur if the compound binds to an interaction domain of the AHR or its ligand binding domain and thereby inhibits the biological function of the AHR as specified elsewhere herein. Preferably, the inhibitor blocks the ligand binding domain for kynurenin, i.e. interacts with the ligand binding domain of the PAS-B domain or the ligand binding domain formed by Tyr310, Phe324, His326 and Arg352 (amino acid positions corresponding to human AHR). Alternatively, the compound may elicit an allosteric effect on the AHR polypeptide resulting in an inhibition of the biological function as well. An indirect inhibition can be elicited by a compound which reduces or prevents the transcription and/or translation of AHR polypetides and, thus, the amount of available AHR polypeptides in a cell. The AHR inhibitor shall at least reduce the AHR activity to a statistically significant extent. Of course, preferably, the inhibitor will reduce the AHR activity below the detectable limits. […] The activity of AHR can be detected by determining induction of the gene expression of its endogenous target gene CYP1A1 by an ethoxyresorufin-O-deethylase (EROD) assay.

AHR [3] = target: T2, AHR (Mus musculus, UniProt P30561); test: AHR nuclear translocation (GFP-tagged AHR, mouse hepatoma cells); format: cell-based; settings: after 1 h; 50 μM Kyn
T2 construct: expressed in transfected cells; host or cells: Tao BpRc1c mouse hepatoma cells
T2 sequence (P30561 10-848): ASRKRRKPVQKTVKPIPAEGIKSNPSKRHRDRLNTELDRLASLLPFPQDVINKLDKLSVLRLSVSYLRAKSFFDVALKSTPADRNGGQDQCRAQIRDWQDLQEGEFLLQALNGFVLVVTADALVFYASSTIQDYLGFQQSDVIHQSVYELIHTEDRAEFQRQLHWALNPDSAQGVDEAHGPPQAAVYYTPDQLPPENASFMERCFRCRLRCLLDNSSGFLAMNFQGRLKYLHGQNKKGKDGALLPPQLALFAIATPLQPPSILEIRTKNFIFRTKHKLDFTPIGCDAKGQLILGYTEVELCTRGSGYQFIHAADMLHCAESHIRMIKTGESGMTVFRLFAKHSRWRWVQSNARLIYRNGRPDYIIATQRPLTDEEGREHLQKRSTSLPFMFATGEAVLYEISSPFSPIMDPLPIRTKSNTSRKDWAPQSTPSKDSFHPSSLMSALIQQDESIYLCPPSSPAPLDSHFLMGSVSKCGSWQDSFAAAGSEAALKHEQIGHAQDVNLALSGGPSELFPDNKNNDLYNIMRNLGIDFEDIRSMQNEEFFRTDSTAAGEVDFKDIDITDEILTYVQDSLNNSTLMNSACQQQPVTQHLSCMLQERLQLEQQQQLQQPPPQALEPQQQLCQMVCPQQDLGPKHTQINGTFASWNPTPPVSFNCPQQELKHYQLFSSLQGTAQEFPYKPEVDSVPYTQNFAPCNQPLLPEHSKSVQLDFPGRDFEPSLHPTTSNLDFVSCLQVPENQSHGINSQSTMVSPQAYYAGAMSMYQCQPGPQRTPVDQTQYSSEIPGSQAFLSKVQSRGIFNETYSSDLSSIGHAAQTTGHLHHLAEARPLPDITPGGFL
Description: For detection of AHR translocation 7000 Tao BpRc1c cells with a GFP-tagged AHR per well were exposed to 50 μM Kyn or 50 μM Trp, fixed in 3.7% formaldehyde in PBS, permeabilised in 0.1% Triton X100, incubated with 1 μg/ml Hoechst 33342 (Invitrogen) and imaged on a BD Pathway™ Imager 855 in a non-confocal mode using a 20× U-Apo 340 objective (Olympus, NA 0.75). Further analysis of fluorescence intensity was performed using the Attovision software (BD Biosciences). In addition, the AHR protein content in the nuclear and the cytoplasmic fractions of LN-229 glioma cells was compared by immunoblotting.

T cells = test: T cell proliferation (mixed leukocyte reaction, TCR-stimulated T cells); format: cell-based, human
Description: Glioma cells were seeded in 96-well plates in RPMI 1640 containing 10% FBS, 100 U/ml penicillin and 100 μg/ml streptomycin. 24 h after seeding […] irradiated (30 Gy) PBMC as stimulators and 2×10^5 PBMC from unrelated donors as responders were added. Six-day MLR were performed and cultures were pulsed with [3H]-methylthymidine (PerkinElmer, Waltham, Mass., USA) for the last 18 h. Cells were harvested, and radionuclide uptake was measured by scintillation counting. Experiments were repeated with six unrelated PBMC donors.

glioma cells = test: Motility, clonogenic survival and sphere formation of glioma cells; format: cell-based, human
Description: Tumor weight was calculated using the equation: tumor weight (g)=(length (cm)×width (cm)2)×0.5. e, IFN-γ-release of T cells of mice bearing subcutaneous Tdo-expressing tumors (black bar) in comparison to T cells of mice bearing Tdo-deficient tumors (white bar) after restimulation with glioma lysates measured by ELISpot (n=3). f, Lysis of GL261 murine glioma cells by spleen cells of mice with Tdo-expressing GL261 tumors in comparison to those with a subcutaneous Tdo-deficient GL261 tumors measured by chromium release (n=4). g, Quantification of the migrated distances of sh-c (open squares) and sh-TDO (solid circles) cells into a collagen matrix (n=3, P=0.004, 0.0005 and 0.01 for 24, 48 and 72 h, respectively). h, Clonogenic survival of sh-c (white bar) and sh-TDO (black bar) U87 cells (n=3). i, Matrigel boyden chamber assay of U87 glioma cells in the absence or presence of 70 μM Trp without or with 30 μM or 60 μM Kyn (n=3). j, Clonogenic survival of LN-18 glioma cells in the absence or presence of 70 μM Trp without or with 30 μM or 60 μM Kyn (n=3). k, Representative cranial MRIs, H&E and nestin stainings of CD1 nu/nu mice implanted with sh-c (upper panel) or sh-TDO (lower panel) U87 glioma cells. […]

AHR response genes = test: Microarray analysis of Kyn-treated U87 glioma cells; format: cell-based, human; settings: U87, 100 μM Kyn, 8 h and 24 h
Description: U87 glioma cells were treated with 100 μM Kyn for 8 h or 24 h, after which the cells were harvested and RNA isolated using the RNAeasy-Kit (Qiagen). The RNA was subjected to microarray analyses as detailed in the Supplementary Methods. For each of the four treatments (8 h, 24 h, Kyn-treated, untreated) two arrays were hybridised and the mean log 2 ratios of gene expression in Kyn-treated vs. untreated samples were calculated. Further analyses of the data are detailed in the Supplementary Methods. For clinical samples microarray and clinical data were acquired from the REpository for Molecular BRAin Neoplasia DaTa (REMBRANDT) (Supplementary Methods). Survival analysis within the data set of untreated primary glioblastoma (n=362) of The Cancer Genome Atlas (TCGA) network was performed using the Kaplan-Meier-analysis module of the R2 microarray analysis and visualisation platform (http://r2.amc.nl).

AHR [4] = target: T1, AHR
Description: Dual luciferase/renilla assays were performed as detailed in the Supplementary Methods. For analysis of DRE-driven reporter gene activity in response to various Trp metabolites, the pGL3-promotor expression plasmid and the control plasmid pRL-SV40, expressing renilla luciferase were used (Promega, Heidelberg, Germany).

AHR [5] = target: T3, AHR (Mus musculus, UniProt P30561)
T3 sequence (P30561 1-848): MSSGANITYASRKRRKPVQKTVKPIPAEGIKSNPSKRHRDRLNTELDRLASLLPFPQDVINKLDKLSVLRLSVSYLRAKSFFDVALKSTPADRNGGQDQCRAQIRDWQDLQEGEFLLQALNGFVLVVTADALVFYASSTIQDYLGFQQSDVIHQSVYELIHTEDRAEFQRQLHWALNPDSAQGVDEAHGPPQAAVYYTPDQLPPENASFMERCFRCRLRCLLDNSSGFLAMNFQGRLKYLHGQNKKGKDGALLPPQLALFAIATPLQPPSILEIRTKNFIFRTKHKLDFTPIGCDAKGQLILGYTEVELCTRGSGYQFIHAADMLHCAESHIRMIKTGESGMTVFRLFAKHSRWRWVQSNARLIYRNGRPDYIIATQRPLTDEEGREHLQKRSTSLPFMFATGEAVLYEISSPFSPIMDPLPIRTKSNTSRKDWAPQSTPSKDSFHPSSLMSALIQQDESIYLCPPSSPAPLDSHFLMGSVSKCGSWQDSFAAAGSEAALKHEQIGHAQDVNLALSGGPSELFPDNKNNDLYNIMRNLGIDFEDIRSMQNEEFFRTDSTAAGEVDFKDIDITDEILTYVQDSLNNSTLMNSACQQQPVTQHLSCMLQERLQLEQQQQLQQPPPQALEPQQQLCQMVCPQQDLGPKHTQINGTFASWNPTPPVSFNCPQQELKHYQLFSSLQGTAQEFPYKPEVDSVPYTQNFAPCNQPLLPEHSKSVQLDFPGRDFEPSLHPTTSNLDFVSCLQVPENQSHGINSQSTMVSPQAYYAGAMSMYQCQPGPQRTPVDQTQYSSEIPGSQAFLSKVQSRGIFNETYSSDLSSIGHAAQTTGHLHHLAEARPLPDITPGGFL
Description: The data distribution is represented by box plots, showing the 25th and 75th percentile together with the median, whiskers represent the 10th and 90th percentile, respectively (P<0.001, one way ANOVA on ranks, followed by Dunns' method). d, AHR Western blots of two different nuclear and cytoplasmic fractions each of control (1,2), Kyn-treated (3,4) and TCDD-treated (5,6) human LN-229 glioma cells. e, Dioxinresponsive element (DRE) chemical activated luciferase gene expression in U87 glioma cells treated with indicated Kyn concentrations (n=2). f, Radioligand binding assay with indicated concentrations of L-3H-Kyn using mouse liver cytosol from Ahr-proficient and Ahr-deficient mice.
L-3H-Kyn with a specific activity of 11 Ci/mmol was obtained from Quotient Bioresearch (Radiochemicals) Ltd. (Cardiff, UK). The binding assays with L-3H-Kyn using mouse liver cytosol from Ahr-proficient and Ahr-deficient mice were performed. Specific binding was defined as the difference of radioactivity between Ahr-proficient and Ahr-deficient cytosol.

COc1ccc(-c2cc(=O)c3ccccc3o2)cc1OC [3,4-DMF, 3,4-dimethoxylflavone]
Activation of the AHR and upregulation of AHR-regulated gene expression in response to Kyn (AHR [1]; agonist Kyn): inhibited
Activation of the AHR by Kyn, TCDD and 3-MC (AHR [1]; three ligands: Kyn, TCDD, 3-methylcholanthrene): inhibited the activation of the AHR by all three ligands

Kynurenin
pEC50 (AHR [2]): 4.91
Translocation of the AHR into the nucleus (AHR [3]): led to translocation of the AHR into the nucleus
Proliferation of T cell receptor-stimulated CD4+ and CD8+ T cells (T cells): concentration-dependently inhibited
Allogeneic T cell proliferation with TDO knockdown glioma cells (T cells; 100 μM Kyn added to sh-TDO U87 cells (FIG. 2b)): prevented the restoration of T cell proliferation
Motility and clonogenic survival of glioma cells (glioma cells; absence of Trp, 30 or 60 μM Kyn (FIG. 2i,j)): restored motility and clonogenic survival
Sphere formation of GIC (glioma cells; glioma-initiating cells): enhanced
Induction of AHR response genes (AHR response genes): broad induction of AHR response genes
pEC50 (AHR [4]): 4.44
pKd (AHR [5]): ~5.40

Reference: patent US9593062B2, “Means and methods for treating and/or preventing natural AHR ligand-dependent cancer” (priority 2011, dated 2017)
